The text below walks through data of patent US20120122727A1, “IN VITRO METHOD FOR PREDICTING WHETHER A COMPOUND IS GENOTOXIC IN VIVO” (priority 2009, published 2012).

Like-named read-outs stand apart in the source and are kept apart here.

This data set deals with primary mouse hepatocytes. Kind of data set: Gene expression in primary mouse hepatocytes, GTX vs non-GTX (four-gene classifier, 24 h). The protocol: Hepatocyte cells were incubated and exposed to a compound for 24 h before being harvested for RNA isolation.
The results of the gene expression analysis may then be fed into a statistical software package such as R, Splus, or Microsoft Excel. […] If none or only one of these criteria were met, no point was scored.
For each of the four genes mentioned in the table (1700007K13RIK, GAS2L3, SPC25, DDIT4L), a statistical comparison was made between the normalized expression data for these genes. […] If none or only one of these criteria were met, no point was scored.
For each compound, the sum of the scores for four genes is taken. If this score is 0, a compound can be believed not to be genotoxic. If this score is 1, 2, 3 or 4, a compound is genotoxic.
If none or only one of these criteria were met, no point was scored.

The mark [1] stands for this setting: 24 h exposure, average of four replicates.
Where [2] appears, read: log 2 ratio, 24 h exposure, concentration per Table 4.
[3] abbreviates: sum of scores for four genes, 0 = not genotoxic, 1, 2, 3 or 4 = genotoxic.

For `CC(C)(c1ccc(O)cc1)c1ccc(O)cc1` [BPA, Bisphenol A], under setting [1], the “score 1700007K13RIK” value was determined as 0, the “score DDIT4L” value was determined as 0, the “score GAS2L3” value is reported as 0 and the “score SPC25” value worked out at 0. Also, under setting [2], the “Ratios of gene expression treated/untreated 1700007K13RIK” value was −0.0382, the “Ratios of gene expression treated/untreated DDIT4L” value was found to be 0.0293, the “Ratios of gene expression treated/untreated GAS2L3” value is −0.06 and the “Ratios of gene expression treated/untreated SPC25” value was −0.0457. Under setting [3], this molecule registered a Total score of 0.
On to `ClC(Cl)(Cl)Cl` [CCI4, Carbon tetrachloride], for which, under setting [1], the “score 1700007K13RIK” value turned out to be 0, the “score DDIT4L” value was determined as 0, the “score GAS2L3” value worked out at 0 and the “score SPC25” value came out at 0. Besides, under setting [2], the “Ratios of gene expression treated/untreated 1700007K13RIK” value is on record as 0.3906, the “Ratios of gene expression treated/untreated DDIT4L” value is 0.4894, the “Ratios of gene expression treated/untreated GAS2L3” value is listed as −0.3188 and the “Ratios of gene expression treated/untreated SPC25” value came to 0.3544. The molecule also displayed a Total score under setting [3] of 0.
Regarding `O=C(O)Cc1ccccc1Nc1c(Cl)cccc1Cl` [DF, Diclofenac], the “Ratios of gene expression treated/untreated 1700007K13RIK” value was 0.09622, the “Ratios of gene expression treated/untreated DDIT4L” value was found to be 0.1268, the “Ratios of gene expression treated/untreated GAS2L3” value is on record as −0.2839 and the “Ratios of gene expression treated/untreated SPC25” value is reported as 0.4079. Moreover, under setting [1], the “score 1700007K13RIK” value amounted to 0, the “score DDIT4L” value is 0, the “score GAS2L3” value is recorded as 0 and the “score SPC25” value is given as 0. In addition, the Total score under setting [3] stood at 0.
Regarding `CCC[CH2][Sn]([CH2]CCC)([CH2]CCC)[O][Sn]([CH2]CCC)([CH2]CCC)[CH2]CCC` [TBTO, Bis(tri-n-butyltin)oxide], under setting [1], the “score 1700007K13RIK” value turned out to be 0, the “score DDIT4L” value is given as 0, the “score GAS2L3” value stood at 0 and the “score SPC25” value stood at 0. In addition, under setting [2], the “Ratios of gene expression treated/untreated 1700007K13RIK” value is given as 0.09131, the “Ratios of gene expression treated/untreated DDIT4L” value was determined as 0.319, the “Ratios of gene expression treated/untreated GAS2L3” value is reported as −0.0161 and the “Ratios of gene expression treated/untreated SPC25” value is given as 0.2186. For the same molecule, under setting [3], the Total score is listed as 0.
As to `Clc1cc2c(cc1Cl)Oc1cc(Cl)c(Cl)cc1O2` [TCDD, 2,3,7,8-Tetrachlorodibenzodioxin], under setting [1], the “score 1700007K13RIK” value is on record as 0, the “score DDIT4L” value stood at 0, the “score GAS2L3” value was determined as 0 and the “score SPC25” value is 0. Further, under setting [2], the “Ratios of gene expression treated/untreated 1700007K13RIK” value turned out to be 0.0752, the “Ratios of gene expression treated/untreated DDIT4L” value is 0.2646, the “Ratios of gene expression treated/untreated GAS2L3” value was 0.22 and the “Ratios of gene expression treated/untreated SPC25” value came out at 0.01802. Moreover, under setting [3], the Total score turned out to be 0.
On to `CCCCCCCCCCCCCC(=O)O[C@@H]1[C@@H](C)[C@@]2(O)[C@@H](C=C(CO)C[C@]3(O)C(=O)C(C)=C[C@@H]23)[C@@H]2C(C)(C)[C@]12OC(C)=O` [TPA, Tetradecanoylphorbol Acetate], for which, under setting [1], the “score 1700007K13RIK” value was 0, the “score DDIT4L” value came to 0, the “score GAS2L3” value came out at 0 and the “score SPC25” value was 0. Under setting [2], the “Ratios of gene expression treated/untreated 1700007K13RIK” value is −0.0617, the “Ratios of gene expression treated/untreated DDIT4L” value was 0.05594, the “Ratios of gene expression treated/untreated GAS2L3” value is 0.01747 and the “Ratios of gene expression treated/untreated SPC25” value worked out at 0.03809. For the same molecule, the Total score under setting [3] was 0.
For the molecule `Cc1cccc(Nc2cc(Cl)nc(SCC(=O)O)n2)c1C` [Wyeth, Wy-14,643], under setting [1], the “score 1700007K13RIK” value is recorded as 0, the “score DDIT4L” value amounted to 0, the “score GAS2L3” value came to 0 and the “score SPC25” value came to 0. For the same molecule, under setting [2], the “Ratios of gene expression treated/untreated 1700007K13RIK” value was −0.3527, the “Ratios of gene expression treated/untreated DDIT4L” value is −0.1013, the “Ratios of gene expression treated/untreated GAS2L3” value is listed as −0.7113 and the “Ratios of gene expression treated/untreated SPC25” value is listed as −0.0756. The Total score under setting [3] was 0.
For `OC[C@@H](O)[C@@H](O)[C@H](O)[C@H](O)CO` [dMan, D-Mannitol], under setting [1], the “score 1700007K13RIK” value is recorded as 0, the “score DDIT4L” value is reported as 0, the “score GAS2L3” value is given as 0 and the “score SPC25” value came to 0. Besides, under setting [2], the “Ratios of gene expression treated/untreated 1700007K13RIK” value is given as 0.02382, the “Ratios of gene expression treated/untreated DDIT4L” value came out at 0.03421, the “Ratios of gene expression treated/untreated GAS2L3” value is reported as −0.2175 and the “Ratios of gene expression treated/untreated SPC25” value was −0.0363. This molecule yielded a Total score under setting [3] of 0.
For the molecule `COc1ccc(C)cc1N` [pCres, Para-Cresidine], the “Ratios of gene expression treated/untreated 1700007K13RIK” value is 0.2086, the “Ratios of gene expression treated/untreated DDIT4L” value worked out at 1.066, the “Ratios of gene expression treated/untreated GAS2L3” value was determined as 1.562 and the “Ratios of gene expression treated/untreated SPC25” value is 1.331. Moreover, the Total score is on record as 3, the “score 1700007K13RIK” value turned out to be 0, the “score DDIT4L” value amounted to 1 and the “score GAS2L3” value is reported as 1. Besides, the “score SPC25” value turned out to be 1.
